Data: patent US20120322125A1, “CONTROL OF CONTAMINANT MICROORGANISMS IN FERMENTATION PROCESSES WITH SYNERGISTIC FORMULATIONS CONTAINING PEROXIDE COMPOUND AND QUATERNARY AMMONIUM COMPOUND” (E. I. DU PONT DE NEMOURS AND COMPANY, priority 2010, published 2012)

Key:
[1] = system: lactic acid bacteria (LAB) species (Lactobacillus brevis, Lactobacillus plantarum, Lactobacillus paracasei); experiment: Viable count of lactic acid bacteria cocktail in treated molasses medium; type: cell-based; conditions: for Viable Population: LAB in molasses medium, 32° C.
Description: (§1) A fermentation broth was prepared by diluting 1 part molasses with 3 parts water as is commonly practiced in molasses-based fermentation processes. A cocktail of three lactic acid bacteria (LAB) species (Lactobacillus brevis, Lactobacillus plantarum, Lactobacillus paracasei) was concurrently prepared by growing an overnight culture of each bacteria in deMann-Rogosa-Sharpe (MRS) broth (available from Difco Laboratories, Inc., Sparks, Md.) at 32° C. in a shaking incubator, then combining the broth to make up a mixed culture. A separate overnight culture of Saccharomyces cerevisiae (inoculant yeast) was prepared by growing an overnight culture in Yeast Peptone Dextrose (YPD) broth (available from Difco Laboratories Inc., Sparks, Md.). A potion of the molasses medium was inoculated with the cocktail of LAB to result in approximately 1×10^6 colony forming units (CFU) per ml of medium. A separate portion was inoculated with the yeast to result in approximately 6×10^5 CFU/ml. Portions of the inoculated molasses medium were treated with hydrogen peroxide (HP), quaternary ammonium compound (didecyl dimethyl ammonium chloride) or combinations of the two as outlined below:
(§2) Treated samples were incubated at 32° C. in a shaking incubator, following which serial dilutions were made in phosphate buffered saline (PBS) before plating the dilutions on MRS agar and Potato Dextrose Agar (PDA) plates for viable count determination. The plates were incubated at 32° C. for 48 hrs.

[2] = system: Saccharomyces cerevisiae (inoculant yeast); experiment: Viable count of inoculant yeast in treated molasses medium; type: cell-based; conditions: for Viable Population: S. cerevisiae in molasses medium, 32° C.
Description: as §1, §2

SMILES	Viable Population ([1]; 75 ppm HP)	reduction of the viable LAB population ([1]; 100 ppm HP by itself)	Viable Population ([1]; 100 ppm HP)	reduction of the LAB population ([1]; 100 ppm QAC by itself)	Viable Population ([1]; 100 ppm QAC)	Viable Population ([1]; 150 ppm QAC)	Viable Population ([2]; 100 ppm QAC)	Viable Population ([2]; 150 ppm QAC)	effects on the viability of the inoculant yeast ([2]; similar concentrations of QAC and HP, alone or combined)
OO [HP, hydrogen peroxide]	4.5 × 10^5 CFU/ml	about 1 log CFU/ml	8.1 × 10^4 CFU/ml						
CCCCCCCCCC[N+](C)(C)CCCCCCCCCC.[Cl-] [QAC, didecyl dimethyl ammonium chloride]				did not reduce	1.19 × 10^6 CFU/ml	1.16 × 10^6 CFU/ml	5.0 × 10^5 CFU/ml	3.5 × 10^5 CFU/ml	did not have any significant effects
